Our source for the IC50 values is patent US20250313535A1, “ALPHA 4 BETA 7 INTEGRIN MODULATORS AND USES THEREOF” (DICE MOLECULES SV, INC., priority 2022, published 2025).

One test addresses α4β7 integrin (Homo sapiens (Human), UniProt P13612+P26010). The test can be described thus: Integrin Adhesion Assay: Protocol 4 (MAdCAM-coated plate, RPMI-8866 cells with stable LOF mutation of the ITGB1 gene). It is filed as cell-based. As to the method:
(§1) Integrin Adhesion Assay Using Genetically Modified Cells Generating Stable Cell Lines with ITGB1 or ITGB7 Knockout (Protocol 4 and Protocol 5)
(§2) To obtain subclones of the RPMI-8866 cell line (Sigma-Aldrich, St. Louis, MO) that were individually deficient in either integrin β1 or integrin β 7, CRISPR/Cas9 technology was employed (PMID: 30108345). Specifically, a Neon™ Transfection System System 10 μL Kit and the Neon™ Transfection device (both from ThermoFisher Scientific) were used.
(§3) The protocol was performed following the manufacturer instructions, described in https://www.thermofisher.com/document-connect/document-connect.html?url=https % 3A%2F%2F assets.thermofisher.com%2FTFS-Assets%2FLSG%2Fmanuals%2FMAN0017066_TrueCut Cas9_Protein_v2_UG.pdf, which is incorporated by reference herein in its entirety.
(§4) RPMI-8866 cells were transferred to a flask the day before transfection, at a confluence of 5×10^5 cells/mL. The cells were washed with PBS and resuspended in buffer R (Neon™ Transfection System, Invitrogen) to 2×10^5 cells/10 uL for each reaction. The TrueCut™ HiFi Cas9 Protein (1250 ng per reaction) was mixed with TrueGuide™ sgRNA (7.5 pmoles each/pool of 3 sequences, table 1) (ThermoFisher Scientific). This mix was combined with the RPMI-8866 cells and electroporated on the Neon system at 1700V/20 ms/1 pulse. Transfected cells were allowed to recover in 500 μL pre-warmed cRMPI media (RPMI-1640 media with 10% FBS, 100 U/ml Penicillin-Streptomycin) at 37° C., 5% CO2 for 24 hours. At that time, an extra 500 μL of pre-warmed cRMPI media was added, and cells were incubated for another 24 hours.
(§5) For flow cytometry analysis, 100 μL of the transfected cells were collected and stained with anti-itga4 (Clone: 9F10, PE, BD Pharmingen™), anti-itgb 1 (Clone: (TS2/16), Super Bright 436, eBioscience), anti-itgb7 (Clone: FIB504, Brilliant Violet 650, BD Pharmingen™) and viability dye (LIVE/DEAD™ Fixable Green Dead Cell Stain, Invitrogen™). An Attune NxT Flow Cytometer was used to analyze the CRISPR-transfected cells. The flow cytometry results were analyzed using FlowJo™ v10.8.1 Software (BD Life Sciences). Fluorescence minus one (FMO) controls were used to select appropriate gates for data analysis.
(§6) To generate an individual clones of cells deficient in either ITGB7 or ITGB1 by limiting dilution assay, the transfected cells were resuspended at 5 cells/mL and seeded in 384 well plates. Outgrowth of clones was monitored using a microscope, and 24 clones were transferred for expansion. Expression of either integrin was verified by flow cytometry in each of the clones. One clone of each integrin b7 or the integrin b1 knockout was chosen, expanded and aliquots were frozen in vapor phase liquid nitrogen.
Integrin Adhesion Assay: Protocol 4
(§7) MAdCAM (R&D Systems, 0.1 ug) was diluted in 50 μL PBS, added to each well of an opaque ELISA plate (Thermo), and incubated overnight at 4° C. Coated plates were washed once with PBS and then blocked with 200 μL of assay buffer (10 mM HEPES, 150 mM NaCl, 1 mM MnCl2, 0.1 mM CaCl2), 1% BSA) for 1 hour at 37° C. and 5% CO2. After incubation, buffer was aspirated from the plates and 50 μL of fresh assay buffer was added. Compounds were added using a compounds dispenser (Tecan), and DMSO concentration was normalized to 1% across each plate. 50 μL of RPMI-8866 cells with a stable loss of function (LOF) mutation of the ITGB1 gene (2×10^6 per mL) were added to each well and the plates were incubated for 1 hour at 37° C. at a CO2 concentration of 5%. After incubation, plates were allowed to cool to RT for 10 minutes before being washed four times in assay buffer by an automated plate washer (BioTek). After washing, 100 μL of a 1:1 mixture of assay buffer and CellTiter GLO 2.0 reagent (Promega) were added to each well. Plates were mixed for 2 minutes at 1000 rpm and then allowed to incubate an additional 10 minutes before reading out luminescence on a Tecan Spark plate reader. […]

For the next test, the target named is α4β1 integrin (Homo sapiens (Human), UniProt P05556+P13612). The test can be described thus: Integrin Adhesion Assay: Protocol 5 (VCAM-coated plate, RPMI-8866 cells with stable LOF mutation of the ITGB7 gene). It is filed as cell-based. The protocol: as §1, §2, §3, §4, §5, §6
Integrin Adhesion Assay: Protocol 5
as §7, with “VCAM” for “MAdCAM”, “by” for “using a”, “(Tecan)” for “(Tecan),”, “LOF” for “loss of function (LOF)”, “ITGB7” for “ITGB1”, “and 5% CO2.” for “at a CO2 concentration of 5%.”

[1] abbreviates: Protocol 4, RPMI-8866 cells with LOF mutation of ITGB1, MAdCAM, read-out: Mean IC50 α4β7 KO.
Where [2] appears, read: Protocol 5, RPMI-8866 cells with LOF mutation of ITGB7, VCAM, read-out: Mean IC50 α4β1 KO.
The mark [3] stands for this setting: RPMI-8866 cells with stable LOF mutation of the ITGB1 gene, read-out: Mean IC50 α4β7 KO^a.
The mark [4] stands for this setting: RPMI-8866 cells with stable LOF mutation of the ITGB7 gene, read-out: Mean IC50 α4β1 KO^b.

Like-named read-outs stand apart in the source and are kept apart here.

Chain of α4β7 integrin (P13612 34-1032): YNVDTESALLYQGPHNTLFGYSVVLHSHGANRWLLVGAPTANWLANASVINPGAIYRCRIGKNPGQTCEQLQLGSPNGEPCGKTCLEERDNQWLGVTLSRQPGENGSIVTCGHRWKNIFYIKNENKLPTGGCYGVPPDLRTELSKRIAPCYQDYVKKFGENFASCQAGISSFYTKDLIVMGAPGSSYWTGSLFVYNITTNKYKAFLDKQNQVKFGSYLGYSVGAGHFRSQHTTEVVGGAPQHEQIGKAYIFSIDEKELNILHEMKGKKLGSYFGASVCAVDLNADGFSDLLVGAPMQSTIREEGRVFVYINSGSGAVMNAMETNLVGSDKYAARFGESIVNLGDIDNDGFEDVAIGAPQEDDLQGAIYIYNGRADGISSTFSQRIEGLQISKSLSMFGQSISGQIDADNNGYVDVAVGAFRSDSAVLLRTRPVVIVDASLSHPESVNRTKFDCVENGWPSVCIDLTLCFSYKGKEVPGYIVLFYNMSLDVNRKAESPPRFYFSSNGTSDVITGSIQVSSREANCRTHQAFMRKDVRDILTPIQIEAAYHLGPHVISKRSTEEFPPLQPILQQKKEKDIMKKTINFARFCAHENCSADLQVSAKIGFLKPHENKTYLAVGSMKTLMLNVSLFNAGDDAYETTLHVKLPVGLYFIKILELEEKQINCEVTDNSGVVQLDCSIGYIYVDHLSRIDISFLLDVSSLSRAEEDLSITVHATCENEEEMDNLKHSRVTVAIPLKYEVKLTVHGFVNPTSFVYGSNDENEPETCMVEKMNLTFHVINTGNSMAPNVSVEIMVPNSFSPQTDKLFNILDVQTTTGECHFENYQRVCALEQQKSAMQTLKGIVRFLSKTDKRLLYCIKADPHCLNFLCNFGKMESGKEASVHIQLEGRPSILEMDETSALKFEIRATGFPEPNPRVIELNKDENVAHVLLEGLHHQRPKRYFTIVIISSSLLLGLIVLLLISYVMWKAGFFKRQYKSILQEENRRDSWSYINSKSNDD
Chain of α4β7 integrin (P26010 20-798): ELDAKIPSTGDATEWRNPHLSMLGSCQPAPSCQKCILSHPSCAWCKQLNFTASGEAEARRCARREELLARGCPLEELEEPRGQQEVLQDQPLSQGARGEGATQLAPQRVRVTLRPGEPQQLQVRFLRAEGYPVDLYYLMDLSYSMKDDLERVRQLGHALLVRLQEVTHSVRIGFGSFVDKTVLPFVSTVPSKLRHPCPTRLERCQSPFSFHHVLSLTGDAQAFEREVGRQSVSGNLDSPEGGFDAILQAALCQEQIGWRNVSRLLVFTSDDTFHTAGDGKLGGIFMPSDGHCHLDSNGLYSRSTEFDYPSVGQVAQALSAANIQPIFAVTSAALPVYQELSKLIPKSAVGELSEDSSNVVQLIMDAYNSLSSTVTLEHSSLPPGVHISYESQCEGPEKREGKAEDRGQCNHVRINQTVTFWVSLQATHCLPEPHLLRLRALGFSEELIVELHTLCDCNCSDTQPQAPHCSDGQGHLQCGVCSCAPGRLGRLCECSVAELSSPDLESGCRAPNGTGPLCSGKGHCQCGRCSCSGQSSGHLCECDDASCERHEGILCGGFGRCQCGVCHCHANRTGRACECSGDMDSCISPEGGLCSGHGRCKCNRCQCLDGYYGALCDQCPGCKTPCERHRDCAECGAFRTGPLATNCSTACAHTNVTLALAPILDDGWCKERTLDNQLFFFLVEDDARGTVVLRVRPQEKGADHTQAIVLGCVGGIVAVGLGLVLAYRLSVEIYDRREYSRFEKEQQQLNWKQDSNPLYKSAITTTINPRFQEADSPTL
Chain of α4β1 integrin (P13612 34-1032): as the sequence (P13612 34-1032) above
Chain of α4β1 integrin (P05556 21-798): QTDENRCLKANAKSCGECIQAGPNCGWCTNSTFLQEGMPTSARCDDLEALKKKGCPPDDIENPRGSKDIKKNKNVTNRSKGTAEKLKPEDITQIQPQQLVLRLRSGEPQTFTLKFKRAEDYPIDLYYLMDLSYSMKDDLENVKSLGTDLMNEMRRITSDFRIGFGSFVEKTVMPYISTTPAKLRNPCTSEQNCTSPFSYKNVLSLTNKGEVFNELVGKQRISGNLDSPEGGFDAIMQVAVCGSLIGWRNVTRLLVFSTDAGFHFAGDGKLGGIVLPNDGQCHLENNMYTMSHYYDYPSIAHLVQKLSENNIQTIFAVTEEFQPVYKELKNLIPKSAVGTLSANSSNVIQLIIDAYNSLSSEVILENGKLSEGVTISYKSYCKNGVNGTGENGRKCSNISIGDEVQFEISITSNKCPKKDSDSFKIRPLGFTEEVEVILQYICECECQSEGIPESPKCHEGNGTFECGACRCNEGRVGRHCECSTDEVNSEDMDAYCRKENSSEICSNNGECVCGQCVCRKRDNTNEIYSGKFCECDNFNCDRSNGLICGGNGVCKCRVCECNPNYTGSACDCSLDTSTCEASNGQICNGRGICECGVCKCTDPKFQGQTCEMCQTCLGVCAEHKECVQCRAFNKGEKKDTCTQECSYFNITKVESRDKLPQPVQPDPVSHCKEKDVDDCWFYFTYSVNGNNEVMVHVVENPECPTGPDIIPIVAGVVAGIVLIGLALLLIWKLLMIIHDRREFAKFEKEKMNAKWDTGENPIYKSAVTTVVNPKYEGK

As a reminder, the IC50 is the midpoint of a concentration-inhibition curve. `COc1ccc(CCN2CCC(F)(F)CC2)c(C(F)(F)F)c1-c1cccc2c(C[C@H](NC(=O)C3(C(F)(F)F)CCN(CC(F)(F)F)CC3)C(=O)O)cccc12` [Compound 850]: the results for the IC50 at α4β7 integrin (setting [1]) and on α4β1 integrin (setting [2]) were 0.01 to 0.1 µM and 0.1 to 1 µM, respectively.
`COc1ccc(CN2CCC[C@@H](F)C2)c(OC)c1-c1cccc2c(C[C@H](NC(=O)C3(C(F)(F)F)CCN(CC(F)(F)F)CC3)C(=O)O)cccc12` [Compound 841]: the IC50 is below 0.01 µM on α4β7 integrin (setting [1]) and above 1 µM on α4β1 integrin (setting [2]).
The corresponding values for `COc1ccc(CN2CCCC(F)C2)c(OC)c1-c1cccc2c(C[C@H](NC(=O)c3c(C)cccc3F)C(=O)O)cccc12` (stereo partly shown) [Compound 1012] are below 0.01 µM and above 1 µM.
With `COc1ccc(CN2CCC3(CCCCC3)CC2)c(OC)c1-c1cccc2c(C[C@H](NC(=O)C3(C(F)(F)F)CCN(CC(F)(F)F)CC3)C(=O)O)cccc12` [Compound 813], the IC50 on α4β7 integrin (setting [1]) was below 0.01 µM; on α4β1 integrin (setting [2]), above 1 µM.
The corresponding values for `Cn1c(=O)c(-c2cccc3c(C[C@H](NC(=O)C4(C(F)(F)F)CCN(CC(F)(F)F)CC4)C(=O)O)cccc23)c(C(F)(F)F)c2ccc(CN3CCC(F)(F)CC3)cc21` [Compound 846] are 0.01 to 0.1 µM and above 1 µM.
`COc1ccc(CN2CC(F)C2)c(OC)c1-c1cccc2c(C[C@H](NC(=O)c3c(C)cccc3F)C(=O)O)cccc12` [Compound 590]: the half-maximal inhibitory concentration (IC50) was below 0.01 µM on α4β7 integrin (setting [3]) and above 1 µM at α4β1 integrin (setting [4]).
On to `COc1ccc(CN2CCCC(F)C2)c(OC)c1-c1cccc2c(C[C@H](NC(=O)C3(C(F)(F)F)CCN(CC(F)(F)F)CC3)C(=O)O)cccc12` (stereo partly shown) [Compound 788], for which the IC50 on α4β7 integrin (setting [1]) was below 0.01 µM; at α4β1 integrin (setting [2]), above 1 µM.
As to `Cc1cccc(F)c1C(=O)N[C@@H](Cc1cccc2c(-c3c(C(F)(F)F)c4cc(CCCN(C)C)ccc4n(C)c3=O)cccc12)C(=O)O` [Compound 1053], the IC50 at α4β7 integrin (setting [1]) is below 0.01 µM; at α4β1 integrin (setting [2]) it was 0.1 to 1 µM.
As for `COc1cc(CN2CCCCC2)ccc1-c1cccc2c(C[C@H](NC(=O)c3c(C)cccc3F)C(=O)O)cccc12` [Compound 666], the IC50 was 0.01 to 0.1 µM at α4β7 integrin (setting [3]) and above 1 µM at α4β1 integrin (setting [4]).
Take `CN1CCCC(c2cnc(-c3cccc4c(C[C@H](NC(=O)C5(C(F)(F)F)CCN(CC(F)(F)F)CC5)C(=O)O)cccc34)c(C(F)(F)F)c2)C1` (stereo partly shown) [Compound 758]: the IC50 at α4β7 integrin (setting [1]) was below 0.01 µM; at α4β1 integrin (setting [2]) it was 0.1 to 1 µM.
For `COc1ccc(CN(C)C)c(OC)c1-c1cccc2c(C[C@H](NC(=O)c3c(F)cccc3C3CC3)C(=O)O)cccc12` [Compound 645], the figures for the IC50 on α4β7 integrin (setting [3]) and on α4β1 integrin (setting [4]) were below 0.01 µM and above 1 µM, respectively.
As to `COc1cccc(CCN2CCCCC2)c1-c1cccc2c(C[C@H](NC(=O)C3(C(F)(F)F)CCN(CC(F)(F)F)CC3)C(=O)O)cccc12` [Compound 956], the IC50 was below 0.01 µM at α4β7 integrin (setting [1]) and 0.1 to 1 µM at α4β1 integrin (setting [2]).
In the case of `O=C(O)[C@H](Cc1cccc2c(-c3ncc(CN4CCC(F)CC4)c4ccccc34)cccc12)NC(=O)C1(C(F)(F)F)CCN(CC(F)(F)F)CC1` [Compound 871], the IC50 on α4β7 integrin (setting [1]) was 0.01 to 0.1 µM; at α4β1 integrin (setting [2]), above 1 µM.
In the case of `Cn1c(=O)c(-c2cccc3c(C[C@H](NC(=O)C4(C(F)(F)F)CCN([C@H](C5CC5)C(F)(F)F)CC4)C(=O)O)cccc23)c(C(F)(F)F)c2ccccc21` [Compound 485], the IC50 on α4β7 integrin (setting [3]) and on α4β1 integrin (setting [4]) was above 1 µM in each case.
With `COc1ccc2c(c1-c1cccc3c(C[C@H](NC(=O)C4(C(F)(F)F)CCN(CC(F)(F)F)CC4)C(=O)O)cccc13)CCN(C)C2` [Compound 737], the IC50 is below 0.01 µM at α4β7 integrin (setting [1]) and 0.1 to 1 µM on α4β1 integrin (setting [2]).
On the same counts, the results for `Cn1c(=O)c(-c2cccc3c(C[C@H](NC(=O)C4(C(F)(F)F)CCN(CC(F)(F)F)CC4)C(=O)O)cccc23)c(C(F)(F)F)c2cc(CN3CCC(c4ccccc4)CC3)ccc21` [Compound 837] are 0.01 to 0.1 µM and 0.1 to 1 µM.
Regarding `COc1ccc(CN2CCC(F)(F)CC2)c(OC)c1-c1cccc2c(C[C@H](NC(=O)C3(C(F)(F)F)CCN([C@H]4COC[C@@H]4F)CC3)C(=O)O)cccc12` [Compound 669], the IC50 was below 0.01 µM at α4β7 integrin (setting [3]) and above 1 µM at α4β1 integrin (setting [4]).
The corresponding values for `COc1ccc(CN2CCC(F)(F)CC2)c(OC)c1-c1cccc2c(C[C@H](NC(=O)C3(C(F)(F)F)CCN(C4COCC4(F)F)CC3)C(=O)O)cccc12` (single isomer, unassigned) [Compound 640] are 0.01 to 0.1 µM and above 1 µM.
Turning to `COc1ccc(CN2CCCC(C)(C)C2)c(OC)c1-c1cccc2c(C[C@H](NC(=O)C3(C(F)(F)F)CCN(CC(F)(F)F)CC3)C(=O)O)cccc12` [Compound 791], the IC50 on α4β7 integrin (setting [1]) was below 0.01 µM; at α4β1 integrin (setting [2]), above 1 µM.
As to `COc1cc(C(F)(F)F)cc(CCN2CCCCC2)c1-c1cccc2c(C[C@H](NC(=O)C3(C(F)(F)F)CCN(CC(F)(F)F)CC3)C(=O)O)cccc12` [Compound 741], the half-inhibitory concentration (IC50) was 0.01 to 0.1 µM at α4β7 integrin (setting [1]) and above 1 µM at α4β1 integrin (setting [2]).
Regarding `COc1ccc(CN2CCCCC2)cc1-c1cccc2c(C[C@H](NC(=O)C3(C(F)(F)F)CCN(CC(F)(F)F)CC3)C(=O)O)cccc12` [Compound 575], the values for the half-maximal inhibitory concentration (IC50) on α4β7 integrin (setting [3]) and on α4β1 integrin (setting [4]) were below 0.01 µM and 0.1 to 1 µM, respectively.
Take `COc1ccc(CN2CCC(F)(F)CC2)c(OC)c1-c1cccc2c(C[C@H](NC(=O)C3(C(F)(F)F)CCN(CC(F)(F)F)CC3)C(=O)O)cccc12` [Compound 780]: the IC50 is 0.01 to 0.1 µM at α4β7 integrin (setting [1]) and above 1 µM at α4β1 integrin (setting [2]).
In the case of `Cc1cc(C2CCN(C)CC2)cnc1-c1cccc2c(C[C@H](NC(=O)C3(C(F)(F)F)CCN(CC(F)(F)F)CC3)C(=O)O)cccc12` [Compound 759], the IC50 at α4β7 integrin (setting [1]) is below 0.01 µM; at α4β1 integrin (setting [2]), above 1 µM.
In the case of `Cn1c(=O)c(-c2cccc3c(C[C@H](NC(=O)C4(C)C5CC4CN(CC(F)(F)F)C5)C(=O)O)cccc23)c(C(F)(F)F)c2ccccc21` (stereo partly shown) [Compound 1048], on α4β7 integrin (setting [1]), the IC50 fell in the range of 0.1 to 1 µM.
`CO[C@H]1C[C@@H](c2cc(F)c(C(=O)N[C@@H](Cc3cccc4c(-c5c(C(F)(F)F)c6ccccc6n(C)c5=O)cccc34)C(=O)O)c(F)c2)N(C)C1` [Compound 466]: the IC50 on α4β7 integrin (setting [3]) lay in the range of 0.1 to 1 µM.
Consider `CC1(C)CCN(Cc2cnc(-c3cccc4c(C[C@H](NC(=O)C5(C(F)(F)F)CCN(C6COC6)CC5)C(=O)O)cccc34)c3ccccc23)CC1` [Compound 686], for which, at α4β7 integrin (setting [1]), the IC50 was below 0.01 µM.
